The values that follow come from ChEMBL document CHEMBL3259772, “Identification and characterization of small molecule modulators of the Epstein-Barr virus-induced gene 2 (EBI2) receptor” (J Med Chem, 2014).

For orientation: AUC(0-inf) means the area under the concentration-time curve extrapolated to infinity. A low value points to low exposure. As a reminder, the Cmax is the peak of the concentration-time curve. What is called bioavailability is the share of a dose that reaches the circulation, judged against a reference dose that is usually intravenous. A high value points to good availability. As a reminder, the Tmax is the time from dosing to the highest level.

Format in all cases: ADME, organism-based
In data set [1] the test system is Mus musculus. Briefly: Total blood clearance in C57BL/6 mouse at 1 mg/kg, iv administered as cassette dose. On the set-up: dose 1 mg/kg, route intravenous. Particulars: in vivo.
Data set [2] is described as follows: AUC (infinity) in C57BL/6 mouse at 1 mg/kg, iv administered as cassette dose. Details: time infinity, dose 1 mg/kg, route intravenous. The settings on record: plasma.
The nature of data set [3]: Apparent volume of distribution at steady state in C57BL/6 mouse at 1 mg/kg, iv administered as cassette dose. Particulars: in vivo, read-out: Vdss(app). Details: dose 1 mg/kg, route intravenous.
A short description of data set [4]: Terminal blood half life in C57BL/6 mouse at 1 mg/kg, iv administered as cassette dose. Details: dose 1 mg/kg, route intravenous. Particulars: read-out: beta t1/2 (converted).
The nature of data set [5]: Cmax in C57BL/6 mouse at 5 mg/kg, po administered as cassette dose. On the set-up: dose 5 mg/kg, route oral. The settings on record: in vivo.
A short description of data set [6]: Oral bioavailability in C57BL/6 mouse at 5 mg/kg administered as cassette dose. Particulars: in vivo.
Data set [7] can be described thus: AUC (infinity) in C57BL/6 mouse at 5 mg/kg, po administered as cassette dose. On the set-up: time infinity, dose 5 mg/kg, route oral. The settings on record: plasma.
Data set [8] can be described thus: Tmax in C57BL/6 mouse at 5 mg/kg, po administered as cassette dose. On the set-up: dose 5 mg/kg, route oral. The settings on record: in vivo.

On to `COc1ccc(/C=C/C(=O)N2CCN(C(=O)c3ccc(OC)cc3)CC2)cc1`, for which, in data set [1], the CL amounted to 52 µL/min/mg. In data set [2], this compound displayed an AUC(0-inf) of 0.841 µM·h. Besides, the Vd in data set [3] is 0.8 L/kg. For the same compound, the half-life in data set [4] was 0.2 h.
In turn, `COc1ccc(C(=O)N2CCN(C(=O)/C=C/c3ccc(Br)cc3)CC2)cc1` yielded a Cmax in data set [5] of 835 nM. The compound further gave a bioavailability in data set [6] of 49%. The values for the AUC(0-inf) in data set [7] and in data set [2] were 3.61 µM·h and 2.44 µM·h, respectively. In data set [1], this compound gave a CL of 16 µL/min/mg. Besides, the Vd in data set [3] came to 1.4 L/kg. The Tmax in data set [8] is 1 h. For the same compound, the half-life in data set [4] was 1.1 h.
